US8841337B2, “Compounds useful as inhibitors of ATR kinase” (Vertex Pharmaceuticals Incorporated, priority 2011, dated 2014)

Molecular target: T1, full-length ATR (Homo sapiens, UniProt Q13535)
T1 construct: Assays were carried out at 25° C. in the presence of 5 nM full-length ATR
Assay: ATR Inhibition Assay (radioactive-phosphate incorporation)
Format: biochemical
Conditions: Ki(app); 5 nM full-length ATR, 10 μM [γ-33P]ATP, 800 μM target peptide, 25° C.
Experimental: Compounds were screened for their ability to inhibit ATR kinase using a radioactive-phosphate incorporation assay. Assays were carried out in a mixture of 50 mM Tris/HCl (pH 7.5), 10 mM MgCl2 and 1 mM DTT. Final substrate concentrations were 10 μM [γ-33P]ATP (3 mCi 33P ATP/mmol ATP, Perkin Elmer) and 800 μM target peptide (ASELPASQPQPFSAKKK).
Assays were carried out at 25° C. in the presence of 5 nM full-length ATR. An assay stock buffer solution was prepared containing all of the reagents listed above, with the exception of ATP and the test compound of interest. 13.5 μL of the stock solution was placed in a 96 well plate followed by addition of 2 μL of DMSO stock containing serial dilutions of the test compound (typically starting from a final concentration of 15 μM with 3-fold serial dilutions) in duplicate (final DMSO concentration 7%). The plate was pre-incubated for 10 minutes at 25° C. and the reaction initiated by addition of 15 μL [γ-33P]ATP (final concentration 10 μM).
The reaction was stopped after […] by the addition of 30 μL 0.1M phosphoric acid containing 2 mM ATP. […]
After removing mean background values for all of the data points, Ki(app) data were calculated from non-linear regression analysis of the initial rate data using the Prism software package (GraphPad Prism version 3.0cx for Macintosh, GraphPad Software, San Diego Calif., USA).

T1 sequence (Q13535 whole entry): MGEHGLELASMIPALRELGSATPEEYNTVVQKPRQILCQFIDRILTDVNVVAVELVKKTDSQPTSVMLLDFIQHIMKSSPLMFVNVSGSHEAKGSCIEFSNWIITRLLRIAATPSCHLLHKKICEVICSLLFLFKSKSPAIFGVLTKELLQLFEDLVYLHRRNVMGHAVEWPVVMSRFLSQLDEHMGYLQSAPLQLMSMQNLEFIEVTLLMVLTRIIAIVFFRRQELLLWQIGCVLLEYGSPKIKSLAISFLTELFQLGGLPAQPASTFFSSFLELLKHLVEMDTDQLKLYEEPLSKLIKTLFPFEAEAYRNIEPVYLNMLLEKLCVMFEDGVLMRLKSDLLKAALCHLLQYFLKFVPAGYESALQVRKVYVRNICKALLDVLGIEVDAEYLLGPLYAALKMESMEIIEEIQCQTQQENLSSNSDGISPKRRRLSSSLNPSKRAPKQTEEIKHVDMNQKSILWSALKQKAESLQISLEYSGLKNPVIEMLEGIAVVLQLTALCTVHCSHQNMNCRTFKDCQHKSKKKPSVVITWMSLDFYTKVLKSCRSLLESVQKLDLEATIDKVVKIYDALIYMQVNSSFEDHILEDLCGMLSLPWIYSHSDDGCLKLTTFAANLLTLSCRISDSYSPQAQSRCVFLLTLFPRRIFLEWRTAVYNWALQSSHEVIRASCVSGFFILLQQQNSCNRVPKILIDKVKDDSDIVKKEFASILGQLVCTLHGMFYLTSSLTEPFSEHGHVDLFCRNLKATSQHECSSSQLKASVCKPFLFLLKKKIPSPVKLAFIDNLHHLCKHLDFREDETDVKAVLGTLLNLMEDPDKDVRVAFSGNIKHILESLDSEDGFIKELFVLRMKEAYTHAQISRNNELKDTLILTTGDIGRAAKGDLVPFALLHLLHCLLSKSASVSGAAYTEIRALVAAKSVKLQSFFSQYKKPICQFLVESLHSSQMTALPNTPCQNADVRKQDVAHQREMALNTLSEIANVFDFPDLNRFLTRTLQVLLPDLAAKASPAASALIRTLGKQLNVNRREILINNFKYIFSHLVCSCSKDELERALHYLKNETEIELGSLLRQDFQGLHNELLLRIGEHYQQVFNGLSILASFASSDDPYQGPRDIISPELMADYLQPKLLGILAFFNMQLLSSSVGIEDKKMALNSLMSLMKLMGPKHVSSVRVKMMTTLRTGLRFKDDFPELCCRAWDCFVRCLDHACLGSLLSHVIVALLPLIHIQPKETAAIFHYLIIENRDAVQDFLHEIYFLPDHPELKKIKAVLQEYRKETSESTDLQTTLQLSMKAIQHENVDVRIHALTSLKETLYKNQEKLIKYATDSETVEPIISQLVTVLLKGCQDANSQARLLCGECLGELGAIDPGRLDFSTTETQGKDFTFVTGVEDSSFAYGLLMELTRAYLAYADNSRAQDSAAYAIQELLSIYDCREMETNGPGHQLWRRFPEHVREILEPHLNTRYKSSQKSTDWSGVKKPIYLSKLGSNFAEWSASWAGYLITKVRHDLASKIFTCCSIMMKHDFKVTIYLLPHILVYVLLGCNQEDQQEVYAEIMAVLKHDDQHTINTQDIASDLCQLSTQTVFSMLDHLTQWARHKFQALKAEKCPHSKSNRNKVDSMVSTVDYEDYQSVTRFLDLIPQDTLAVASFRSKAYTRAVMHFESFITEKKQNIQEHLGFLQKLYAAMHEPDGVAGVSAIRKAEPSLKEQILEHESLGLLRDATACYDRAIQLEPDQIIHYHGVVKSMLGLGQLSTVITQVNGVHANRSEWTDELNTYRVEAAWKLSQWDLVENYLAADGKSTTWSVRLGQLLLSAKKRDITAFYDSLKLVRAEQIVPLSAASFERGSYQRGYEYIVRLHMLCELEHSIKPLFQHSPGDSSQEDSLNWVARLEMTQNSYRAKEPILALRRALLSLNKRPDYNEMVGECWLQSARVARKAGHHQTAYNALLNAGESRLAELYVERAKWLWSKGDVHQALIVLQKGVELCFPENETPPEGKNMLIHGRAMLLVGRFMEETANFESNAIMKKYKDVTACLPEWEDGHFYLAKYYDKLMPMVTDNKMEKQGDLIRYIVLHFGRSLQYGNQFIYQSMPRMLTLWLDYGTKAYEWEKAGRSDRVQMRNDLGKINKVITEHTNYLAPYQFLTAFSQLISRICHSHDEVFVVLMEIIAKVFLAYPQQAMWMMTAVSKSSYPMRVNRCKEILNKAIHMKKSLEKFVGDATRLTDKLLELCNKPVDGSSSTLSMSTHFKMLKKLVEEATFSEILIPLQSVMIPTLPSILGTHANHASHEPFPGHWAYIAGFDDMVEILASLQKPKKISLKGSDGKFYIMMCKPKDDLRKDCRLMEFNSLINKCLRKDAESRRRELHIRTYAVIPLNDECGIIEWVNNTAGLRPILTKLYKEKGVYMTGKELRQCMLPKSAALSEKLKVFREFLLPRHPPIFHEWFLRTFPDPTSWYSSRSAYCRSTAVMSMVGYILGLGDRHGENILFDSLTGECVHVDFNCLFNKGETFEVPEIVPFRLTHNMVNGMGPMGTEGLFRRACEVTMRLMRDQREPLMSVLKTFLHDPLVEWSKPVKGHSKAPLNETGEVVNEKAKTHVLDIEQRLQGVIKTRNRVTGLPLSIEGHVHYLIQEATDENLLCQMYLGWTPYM

Ki	SMILES
2.86 nM	CC(C)S(=O)(=O)c1ccc(-c2cnc(N)c(-c3cc(-c4ccccc4)[nH]n3)n2)cc1 [Compound I-1, 5-(4-(isopropylsulfonyl)phenyl)-3-(5-phenyl-1H-pyrazol-3-yl)pyrazin-2-amine]
4.03 nM	CC(C)S(=O)(=O)c1ccc(-c2cnc(N)c(-c3ncc(-c4ccccc4)o3)n2)cc1 [Compound I-2, 5-(4-(isopropylsulfonyl)phenyl)-3-(5-phenyloxazol-2-yl)pyrazin-2-amine]
